Results: patent publication US20050261292A1, “Pharmaceutical composition containing N-sulfamoyl-N'-arylpiperazines for the treatment or inhibition of obesity and related conditions” (Solvay Pharmaceuticals GmbH, priority 2004, published 2005)
Counter-ions that a name gives are not always drawn.

How the values were obtained:
[1] = target: T1, human carbonic anhydrase isoenzyme II (hCA II) (Homo sapiens, UniProt P00918); assay: In vitro inhibition of human carbonic anhydrase isoenzyme II (hCA II), dansylamide fluorescence; type: biochemical; details: hCA II from erythrocytes 10^-7 M, 60 min, single measurements, read-out: hCA II inhibiting effect in vitro, IC50
T1 construct: human carbonic anhydrase isoenzyme II from erythrocytes (Sigma-Aldrich); purchased Sigma-Aldrich; host or cells: human erythrocytes (natural source)
Method: 1. In vitro Inhibition of Human Carbonic Anhydrase Isoenzyme II (hCA II)
The test compounds of Formula I in 96 well microplates were diluted with aqua bidest by using an automatic pipettor (CyBiWell®). From the different dilution plates, aliquots of 20 μl were transferred to the 96 well black assay plates with a pipetting station (Tecan Genesis®). In a second step, 148 μl of potassium phosphate buffer (20 mM, pH 7.4) was added, and as a third step, 20 μl of enzyme solution (1 μM human carbonic anhydrase isoenzyme II from erythrocytes (Sigma-Aldrich), dissolved in potassium phosphate buffer) incubated for 60 min at room temperature and the fluorescence signal (Tecan Ultra® fluorescence reader; excitation wavelength: 280 nm; emission wavelength: 465 nm) read at the end of the preincubation period (FLU-1). After the preincubation time, 20 μl of aqueous dansylamide solution (1 mM dansylamide (Sigma-Aldrich), dissolved in hydrochloric acid) were added and the fluorescence signal read every 10 min for a period of 60 min at 37° C. For calculation, the fluorescence data of the time point 60 min (FLU-2) were used. The total volume of assay mixture amounted to 208 μl. The final concentration of carbonic anhydrase II was 10^−7 M/L, of dansylamide 2.25×10^−6 and of compounds from 10^−8 M/L up to 10^−5 M/L. Final concentration of DMSO as compound solvent was […]. Each microplate also contained blanks without compound and enzyme, controls without compound and ethoxzolamide (final concentration 5×10^−8 M/L). All data reflect single measurements. Data were expressed as % inhibition after calculation by the formula: % inhibition=100((1−(FLU−2cpd−FLU−2blank−FLU−1cpd+FLU−1blank)/(FLU−2control−FLU−2blank−FLU−1control−FLU−1blank))
The % inhibition data for each compound and the respective final concentrations were used for IC50 calculations by using the Prism 4 software. Concentration action figures were calculated by applying the Prism algorithm for nonlinear regression (curve-fit): sigmoidal dose response with variable slope and the constraints: top: 100 and bottom 0.

[2] = tested on: male C57Bl/6 mice; assay: Acute in vivo food intake test in mice; details: high caloric diet, 100 mg/kg/day oral gavage in two halves
Method: 3. Acute in vivo Food Intake Test in Mice
The studies were carried out in individually housed male C57Bl/6 mice (n=8 per group). The mice were kept on an inverted 12/12 h light/dark cycle (lights on 22:00). They were allowed food (high caloric diet) and water ad libitum. Food intake and water consumption was measured daily. The test compound of Formula I was suspended in 1% methylcellulose in water and 2% (v/v) of Poloxamer 188 (Lutrol F68®) and administered by oral gavage at a dose of 100 mg/kg/day.
In the test model described above, the test substances caused a decrease of the animals' 24 h food intake to the percentages of food intake when compared to control as given in table 3 below.

[3] = tested on: male fatty Zucker rats; assay: In vivo oral glucose tolerance test in the rat; details: 100 mg/kg/day oral gavage; for Glucose Baseline / Insulin Baseline: 0 min sample before glucose challenge; for Insulin Baseline / Insulin AUC / Insulin Maximal effect: plasma; for Glucose Maximal effect / Glucose AUC / Insulin AUC / Insulin Maximal effect: oral glucose challenge 1.25 g/kg; for Glucose AUC / Insulin AUC: 0-120 min
Method: 2. In vivo Oral Glucose Tolerance Test in the Rat
The studies were carried out in individually housed male fatty Zucker rats (n=10 per group) weighing ca. 250-500 g. The rats were kept on a normal 12/12 h light/dark cycle (lights on 07.00) and they were allowed food (lab chow) and water ad libitum except for during experiments, when they were fasted overnight before the glucose challenge.
The test substances of Formula I were suspended in 2% polyethylenglycol (=PEG) 1% carboxymethylcellulose and administered by oral gavage at a dose of 100 mg/kg/day; ⅓ of the dose (1 ml/kg, 33 mg/ml) was administered at 08.30-09.30 h; the remaining […] (2 ml/kg; 33 mg/ml) was administered between 16.00-17.00 h and the last ⅓ dose was given the following morning. Control animals received only the vehicle. On the day of the test, 45 min after the final dose of test substance/vehicle a blood sample (0 min) was taken (tail vein) immediately after which the rats received an oral glucose challenge (1.25 g/kg; 118 mg/ml). Further blood samples were taken at 30, 60, 90, 120 min after the glucose challenge. The second drop of blood of each sample was placed on a glucose test strip before this was placed in the glucose meter for determination of blood glucose level (Life Scan One Touch Ultra Blood® Glucose Meter and Life Scan One Touch Ultra® Test Strips; Life Scan Inc.; Milpitas, Calif. 95035). The remaining blood of each sample was spun and the plasma was frozen at −80° C. before analysis for insulin (1-2-3 Rat Insulin ELISA kit, Alpco Diagnostics).
The values obtained were plotted and the AUC for test compounds and vehicle (for glucose and insulin) were determined after which the percent control AUC, percent control maximum value and % control baseline were estimated, to determine the influence of the test compound on the glucose tolerance.

SMILES	melting point	IC50 [1]	other results
NS(=O)(=O)N1CCN(c2ccc(Cl)c(C(F)(F)F)c2)CC1 (as salt: HCl) [Example 12, 4-(4-chloro-3-trifluoromethyl-phenyl)-piperazine-1-sulfonic acid amide]	180 °C		
NS(=O)(=O)N1CCN(c2cc(C(F)(F)F)nc3ccccc23)CC1 [Example 17]		1900 nM	
NS(=O)(=O)N1CCN(c2cc(C(F)(F)F)nc3ccccc23)CC1 (as salt: HCl) [Example 17]	191 °C		
NS(=O)(=O)N1CCN(c2ccc(C(F)(F)F)cc2[N+](=O)[O-])CC1 (as salt: HCl) [Example 20]	134 °C		
N#Cc1cccnc1N1CCN(S(N)(=O)=O)CC1 (as salt: HCl) [Example 13]	190 °C		
NS(=O)(=O)N1CCN(c2ccc(C(F)(F)F)cc2[N+](=O)[O-])CC1 [Example 20]		300 nM	
CC(=O)c1ccc(N2CCN(S(N)(=O)=O)CC2)cc1 [Example 15]		400 nM	24 h food intake [2]: 79 % of control
CS(=O)(=O)c1ccc(N2CCN(S(N)(=O)=O)CC2)c(F)c1 [Example 21]		200 nM	24 h food intake [2]: 76 % of control
CC(=O)c1ccc(N2CCN(S(N)(=O)=O)CC2)cc1 (as salt: HCl) [Example 15]	156 °C		
NS(=O)(=O)N1CCN(c2cccc(Cl)c2)CC1 [Example 10]		4000 nM	
NS(=O)(=O)N1CCN(c2c(Cl)cncc2Cl)CC1 [Example 16]		300 nM	
NS(=O)(=O)N1CCN(c2nccc(C(F)(F)F)n2)CC1 [Example 18]		1600 nM	
NS(=O)(=O)N1CCN(c2c(Cl)cncc2Cl)CC1 (as salt: HCl) [Example 16]	206 °C		
NS(=O)(=O)N1CCN(c2ccc(F)cc2)CC1 (as salt: HCl) [Example 9, 4-(4-fluoro-phenyl)-piperazine-1-sulfonic acid amide]	125 °C		
NS(=O)(=O)N1CCN(c2ccncc2)CC1 [Example 6, 4-pyridin-4-yl-piperazine-1-sulfonic acid amide]			Glucose Baseline [3]: 91 % of control; Insulin Baseline [3]: 109 % of control; Glucose Maximal effect [3]: 84 % of control; Glucose AUC [3]: 89 % of control; Insulin AUC [3]: 104 % of control; Insulin Maximal effect [3]: 123 % of control
Cc1cccc(N2CCN(S(N)(=O)=O)CC2)c1C (as salt: HCl) [Example 8]	202 °C		

SMILES	melting point	IC50 [1]	other results
Cc1ccc(Cl)cc1N1CCN(S(N)(=O)=O)CC1 [Example 11]		500 nM	
COc1ccccc1N1CCN(S(N)(=O)=O)CC1 [Example 3, 4-(2-Methoxy-phenyl)-piperazine-1-sulfonic acid amide hydrochloride]		7800 nM	
Cc1cccc(N2CCN(S(N)(=O)=O)CC2)c1C [Example 8]		1700 nM	
NS(=O)(=O)N1CCN(c2ncc(C(F)(F)F)cc2Cl)CC1 (as salt: HCl) [Example 14, 4-(3-chloro-5-trifluoromethyl-pyridin-2-yl)-piperazine-1-sulfonic acid amide]	159 °C		
NS(=O)(=O)N1CCN(c2ccccn2)CC1 [Example 4, 4-Pyridin-2-yl-piperazine-1-sulfonic acid amide]		3700 nM	
NS(=O)(=O)N1CCN(c2ccncc2)CC1 (as salt: HCl) [Example 6, 4-pyridin-4-yl-piperazine-1-sulfonic acid amide]	243 °C		
NS(=O)(=O)N1CCN(c2ccc(C(F)(F)F)cn2)CC1 (as salt: HCl) [Example 19]	169 °C		
NS(=O)(=O)N1CCN(c2nccc(C(F)(F)F)n2)CC1 (as salt: HCl) [Example 18]	156 °C		
NS(=O)(=O)N1CCN(c2ccc(Cl)c(C(F)(F)F)c2)CC1 [Example 12, 4-(4-chloro-3-trifluoromethyl-phenyl)-piperazine-1-sulfonic acid amide]		1200 nM	24 h food intake [2]: 53 % of control
NS(=O)(=O)N1CCN(c2ncc(C(F)(F)F)cc2Cl)CC1 [Example 14, 4-(3-chloro-5-trifluoromethyl-pyridin-2-yl)-piperazine-1-sulfonic acid amide]		200 nM	Glucose Baseline [3]: 88 % of control; Insulin Baseline [3]: 97 % of control; Glucose Maximal effect [3]: 94 % of control; Glucose AUC [3]: 102 % of control; Insulin AUC [3]: 107 % of control; Insulin Maximal effect [3]: 92 % of control
Cc1ccc(Cl)cc1N1CCN(S(N)(=O)=O)CC1 (as salt: HCl) [Example 11]	190 °C		
CS(=O)(=O)c1ccc(N2CCN(S(N)(=O)=O)CC2)c(F)c1 (as salt: HCl) [Example 21]	184 °C		
NS(=O)(=O)N1CCN(c2ncccn2)CC1 [Example 7, 4-pyrimidin-2-yl-piperazine-1-sulfonic acid amide]		1800 nM	24 h food intake [2]: 78 % of control
NS(=O)(=O)N1CCN(c2ccc(C(F)(F)F)cn2)CC1 [Example 19]		80 nM	
N#Cc1cccnc1N1CCN(S(N)(=O)=O)CC1 [Example 13]		900 nM	
NS(=O)(=O)N1CCN(c2ccc(F)cc2)CC1 [Example 9, 4-(4-fluoro-phenyl)-piperazine-1-sulfonic acid amide]		7300 nM	
